From ChEMBL document CHEMBL1159294, “Bioactive Prenylhydroquinone Sulfates and a Novel C 31 Furanoterpene Alcohol Sulfate from the Marine Sponge, Ircinia Sp” (J Nat Prod, 1995)
Activity calls are given as the source filed them. The rule behind the calls is not given here.

How the values were obtained:
[1] = Binding affinity to neurotensin receptor
[2] = biological target: Human immunodeficiency virus type 1 integrase (Human immunodeficiency virus 1) (UniProt Q7ZJM1); experiment: Inhibition of HIV1 integrase at 1 ug/ml by scintillation proximity assay
[3] = biological target: Receptor tyrosine-protein kinase erbB-2 (Homo sapiens, UniProt P04626); experiment: Inhibition of HER2 overexpressed in mouse 3T3 cells by ELISA; type: cell-based; details: for Activity: NIH3T3
[4] = biological target: T1, VIP peptides (Homo sapiens) (UniProt P01282); experiment: Binding affinity to vasoactive intestinal peptide
T1 sequence (whole entry): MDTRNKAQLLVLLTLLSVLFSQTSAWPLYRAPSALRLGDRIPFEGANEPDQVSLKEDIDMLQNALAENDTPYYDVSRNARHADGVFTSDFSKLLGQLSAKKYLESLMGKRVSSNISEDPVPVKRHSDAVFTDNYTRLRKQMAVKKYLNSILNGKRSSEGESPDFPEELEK

[5] = biological target: T2, Neuropeptide Y receptor type 1 (Rattus norvegicus) (UniProt P21555); experiment: (§1) Displacement of [3H]NPY from neuropeptide Y receptor in rat cerebral cortices
T2 sequence (whole entry): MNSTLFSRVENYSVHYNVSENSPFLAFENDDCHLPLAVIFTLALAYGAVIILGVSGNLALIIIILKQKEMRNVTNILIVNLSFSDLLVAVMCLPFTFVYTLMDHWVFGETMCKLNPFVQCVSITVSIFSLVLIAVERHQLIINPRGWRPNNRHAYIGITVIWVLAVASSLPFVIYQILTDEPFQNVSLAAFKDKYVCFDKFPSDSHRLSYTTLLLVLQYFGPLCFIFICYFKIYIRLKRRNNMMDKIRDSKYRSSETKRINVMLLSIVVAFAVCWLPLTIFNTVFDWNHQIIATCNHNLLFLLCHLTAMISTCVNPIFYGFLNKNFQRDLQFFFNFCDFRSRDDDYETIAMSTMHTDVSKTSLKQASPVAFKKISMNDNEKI

[6] = biological target: T3, B2 bradykinin receptor (Homo sapiens) (UniProt P30411); experiment: Displacement of [3H]bradykinin from human bradykinin B2 receptor expressed in baculovirus-infected SF21 cells
T3 sequence (whole entry): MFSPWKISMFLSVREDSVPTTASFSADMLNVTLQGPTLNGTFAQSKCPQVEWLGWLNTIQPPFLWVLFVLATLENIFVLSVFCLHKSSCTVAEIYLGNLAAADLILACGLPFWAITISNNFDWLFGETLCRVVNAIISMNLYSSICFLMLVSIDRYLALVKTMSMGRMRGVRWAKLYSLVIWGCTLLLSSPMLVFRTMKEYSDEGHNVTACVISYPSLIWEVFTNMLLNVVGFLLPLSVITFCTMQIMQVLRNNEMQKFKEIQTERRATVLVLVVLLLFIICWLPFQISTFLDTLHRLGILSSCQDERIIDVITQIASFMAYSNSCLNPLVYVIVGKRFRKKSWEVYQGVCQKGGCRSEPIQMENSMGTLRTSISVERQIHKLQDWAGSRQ

[7] = biological target: T4, Neuromedin-K receptor (Homo sapiens) (UniProt P29371); experiment: Binding affinity to NK3 receptor
T4 sequence (whole entry): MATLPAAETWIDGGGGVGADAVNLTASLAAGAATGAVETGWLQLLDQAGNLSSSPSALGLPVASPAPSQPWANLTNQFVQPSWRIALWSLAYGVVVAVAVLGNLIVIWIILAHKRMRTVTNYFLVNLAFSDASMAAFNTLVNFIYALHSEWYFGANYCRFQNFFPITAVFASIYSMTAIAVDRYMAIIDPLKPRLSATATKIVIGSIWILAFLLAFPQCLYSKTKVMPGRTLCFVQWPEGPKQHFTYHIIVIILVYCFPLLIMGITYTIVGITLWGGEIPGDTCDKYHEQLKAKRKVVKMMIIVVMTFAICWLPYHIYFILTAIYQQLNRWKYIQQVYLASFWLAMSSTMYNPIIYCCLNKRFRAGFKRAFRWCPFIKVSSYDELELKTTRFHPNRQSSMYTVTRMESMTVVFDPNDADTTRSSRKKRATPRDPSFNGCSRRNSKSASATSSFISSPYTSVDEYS

[8] = organism: Rattus norvegicus; experiment: Displacement of radioiodinated somatostatins from rat somatostatin receptor
[9] = Binding affinity to galanin receptor
[10] = biological target: Human immunodeficiency virus type 1 integrase (Human immunodeficiency virus 1) (UniProt Q7ZJM1); experiment: Inhibition of HIV1 integrase at 5 ug/ml by scintillation proximity assay
[11] = biological target: T5, Neuropeptide Y receptor type 1 (Rattus norvegicus, UniProt P21555); experiment: as §1
T5 sequence (P21555 whole entry): T2 sequence (whole entry)

Sequence of Receptor tyrosine-protein kinase erbB-2 (P04626 whole entry): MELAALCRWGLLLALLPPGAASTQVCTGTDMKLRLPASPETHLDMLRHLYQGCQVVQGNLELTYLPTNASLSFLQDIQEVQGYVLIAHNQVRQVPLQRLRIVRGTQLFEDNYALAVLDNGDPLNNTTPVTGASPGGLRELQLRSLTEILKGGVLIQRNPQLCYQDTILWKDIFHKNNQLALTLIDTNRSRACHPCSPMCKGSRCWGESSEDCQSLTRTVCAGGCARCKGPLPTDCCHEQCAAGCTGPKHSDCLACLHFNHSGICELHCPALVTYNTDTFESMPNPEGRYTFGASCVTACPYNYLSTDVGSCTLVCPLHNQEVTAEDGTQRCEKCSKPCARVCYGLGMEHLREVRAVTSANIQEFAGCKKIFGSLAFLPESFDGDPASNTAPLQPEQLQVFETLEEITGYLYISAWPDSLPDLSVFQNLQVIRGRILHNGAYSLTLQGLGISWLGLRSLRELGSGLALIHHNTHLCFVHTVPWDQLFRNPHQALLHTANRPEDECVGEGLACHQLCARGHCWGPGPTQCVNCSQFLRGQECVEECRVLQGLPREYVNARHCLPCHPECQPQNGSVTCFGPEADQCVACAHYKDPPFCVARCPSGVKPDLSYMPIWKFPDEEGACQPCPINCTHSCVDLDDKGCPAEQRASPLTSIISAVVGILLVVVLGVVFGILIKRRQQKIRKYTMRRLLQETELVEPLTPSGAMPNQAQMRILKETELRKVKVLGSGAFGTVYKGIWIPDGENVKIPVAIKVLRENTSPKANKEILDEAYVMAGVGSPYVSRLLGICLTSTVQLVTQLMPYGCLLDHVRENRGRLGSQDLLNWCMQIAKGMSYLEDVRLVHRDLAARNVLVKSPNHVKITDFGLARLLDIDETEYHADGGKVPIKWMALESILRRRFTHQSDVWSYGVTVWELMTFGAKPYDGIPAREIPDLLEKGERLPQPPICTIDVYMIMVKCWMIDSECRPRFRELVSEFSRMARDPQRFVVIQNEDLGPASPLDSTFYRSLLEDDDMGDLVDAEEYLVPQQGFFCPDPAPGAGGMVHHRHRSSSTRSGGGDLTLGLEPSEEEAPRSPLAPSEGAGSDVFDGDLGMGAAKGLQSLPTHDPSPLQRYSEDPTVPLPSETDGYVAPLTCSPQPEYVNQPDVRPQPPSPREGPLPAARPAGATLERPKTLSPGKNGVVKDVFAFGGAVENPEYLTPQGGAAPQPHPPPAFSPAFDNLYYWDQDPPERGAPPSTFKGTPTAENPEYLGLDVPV
Sequence of Human immunodeficiency virus type 1 integrase (Human immunodeficiency virus 1) (Q7ZJM1 as listed by the source): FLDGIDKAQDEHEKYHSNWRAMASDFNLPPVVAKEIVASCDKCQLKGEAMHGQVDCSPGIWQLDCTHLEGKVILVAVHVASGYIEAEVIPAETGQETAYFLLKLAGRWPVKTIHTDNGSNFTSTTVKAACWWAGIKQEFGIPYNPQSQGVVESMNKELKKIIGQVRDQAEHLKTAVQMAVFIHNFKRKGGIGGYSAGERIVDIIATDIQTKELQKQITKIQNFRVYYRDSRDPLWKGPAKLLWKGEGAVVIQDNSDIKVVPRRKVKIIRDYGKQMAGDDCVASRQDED

CC(C)=CCC/C(C)=C/CC/C(C)=C/CC/C(C)=C/CCC1(C)C=Cc2cc(O)ccc2O1 (configuration not stated)
Activity [1]: inactive | Activity [2]: inactive | Activity [3]: inactive | Activity [4]: inactive | Activity [5]: inactive | Activity [6]: inactive | Activity [7]: inactive | Activity [8]: inactive | Activity [9]: inactive | Activity [10]: inactive

CC(C)=CCC/C(C)=C/CC/C(C)=C/CC/C(C)=C/CC/C(C)=C/Cc1cc(OS(=O)(=O)O)ccc1O
inhibition [2]: 65% | IC50 [3]: 14.5 µM | IC50 [11]: 91.9 µM

CC(C)=CCC/C(C)=C/CC/C(C)=C/CC/C(C)=C/CC/C(C)=C/CCC1(C)C=Cc2cc(O)ccc2O1 (configuration not stated)
Activity [1]: inactive | Activity [2]: inactive | Activity [3]: inactive | Activity [4]: inactive | Activity [5]: inactive | Activity [6]: inactive | Activity [7]: inactive | Activity [8]: inactive | Activity [9]: inactive | Activity [10]: inactive

CC(C)=CCC/C(C)=C/CC/C(C)=C/CC/C(C)=C/CC/C(C)=C/CC/C(C)=C/CC/C(=C/Cc1cc(O)ccc1O)CO
IC50 [3]: 9.79 µM | inhibition [10]: 45%

CC(C)=CCC/C(C)=C/CC/C(C)=C/CC/C(C)=C/CC/C(C)=C/CC/C(C)=C/Cc1cc(OS(=O)(=O)O)ccc1O
IC50 [3]: 6.44 µM

CC(C)=CCC/C(C)=C/CC/C(C)=C/CC/C(C)=C/CC/C(C)=C/CC/C(C)=C/CCC1(C)C=Cc2cc(O)ccc2O1 (configuration not stated)
Activity [1]: inactive | Activity [2]: inactive | Activity [3]: inactive | Activity [4]: inactive | Activity [5]: inactive | Activity [6]: inactive | Activity [7]: inactive | Activity [8]: inactive | Activity [9]: inactive | Activity [10]: inactive

CC(C)=CCC/C(C)=C/CC/C(C)=C/CC/C(C)=C/CC/C(C)=C/CC/C(C)=C/CC/C(C)=C/Cc1cc(OS(=O)(=O)O)ccc1O
IC50 [3]: 11.6 µM
